Data on 22 molecules can be found in PubChem BioAssay AID434987 (Southern Research Specialized Biocontainment Screening …, 2010).

The test system of the assay is M. tuberculosis H37Rv growth inhibition with meropenem. The experiment in a line: dose response, H37Rv, with and without meropenem (AID 434987).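 Further: growth over 7 days at 37 °C before Alamar Blue read on day 9.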
Where [1] appears, read: M. tuberculosis H37Rv growth inhibition, measured here: IC50 without meropenem.
[2] abbreviates: M. tuberculosis H37Rv growth inhibition, measured here: IC90 without meropenem.
Where [3] appears, read: measured here: IC90 with meropenem.

Calls of active or inactive are those of the source. How the calls were made is not given here. A value given as a limit tells only on which side of the number the result lay.

By IC50 is commonly meant the concentration that gives 50% inhibition. As a reminder, the IC90 is the point of the concentration-response curve where the effect stands at 90%. A lower IC90 goes with an effect from little substance. Regarding `CSc1ccccc1C(=O)Nc1ccc2c(c1)OCCO2`, the IC50 is 35.4 µM (inactive). The molecule further came in with a half-inhibitory concentration (IC50) under setting [1] of 80.5 µM. Also, the 90% effect concentration (IC90) under setting [2] is above 100 µM. Under setting [3], the IC90 was above 100 µM.

Take `CSc1nsc(SC)c1NC(=O)OCc1ccccc1`: the concentration for half-maximal inhibition (IC50) is 32.3 µM. Under setting [1], the IC50 is above 100 µM. The molecule further yielded a 90% effect concentration (IC90) under setting [2] above 100 µM. For the same molecule, under setting [3], the IC90 is above 100 µM.

For `OC1C(O)C(O)C(O)C(O)C1O` (stereo not drawn), the IC50 is > 100 µM (inactive). Moreover, the IC50 under setting [1] is above 100 µM. Under setting [2], this molecule displayed a concentration for an effect of 90% (IC90) above 100 µM. For the same molecule, under setting [3], the IC90 is above 100 µM.

For the molecule `CN(C)C(=O)c1ccc(-n2nc(C(F)(F)F)c3c2CCCC3)cc1`, the IC50 is > 100 µM (inactive). In addition, the concentration for half-maximal inhibition (IC50) under setting [1] is above 100 µM. Under setting [2], this molecule came in with an IC90 above 100 µM. Under setting [3], this molecule showed a 90% effect concentration (IC90) above 100 µM.

For `OCCCn1c(C2CCCN2c2nc(-c3ccc(Cl)cc3)cs2)nc2cc(Cl)c(Cl)cc21` (stereo not drawn), the IC50 is > 100 µM (inactive). For the same molecule, the half-inhibitory concentration (IC50) under setting [1] is above 100 µM. The molecule also displayed an IC90 under setting [2] above 100 µM. The molecule further showed an IC90 under setting [3] above 100 µM.

For the molecule `O=C(Nc1c2c(nc3ccccc13)CCCC2)c1ccccc1F`, the IC50 is 42.6 µM (inactive). Moreover, under setting [1], the IC50 was 74 µM. The same molecule registered an IC90 under setting [2] above 100 µM. Moreover, the IC90 under setting [3] was above 50 µM.

As to `Cc1cc(C)cc(NC(=S)NN)c1`, the IC50 was 55.5 µM (inactive). For the same molecule, under setting [1], the IC50 turned out to be 78.3 µM. The same molecule displayed a 90% effect concentration (IC90) under setting [2] above 100 µM. This molecule also displayed an IC90 under setting [3] above 100 µM.

Regarding `COc1cc(OC)cc(-c2c(C#Cc3ccsc3)c3cc(-c4ccc(OC)nc4)ccc3n2C)c1`, the IC50 is > 100 µM (inactive). The same molecule showed an IC50 under setting [1] above 100 µM. In addition, under setting [2], the IC90 is above 100 µM. For the same molecule, under setting [3], the 90% effect concentration (IC90) was above 100 µM.

`COc1cc(C(=S)N2CCOCC2)ccc1OC(=O)c1ccc([N+](=O)[O-])cc1[N+](=O)[O-]`: the IC50 was 3.24 µM (inactive). In addition, the IC50 under setting [1] is 6.01 µM. Also, under setting [2], the IC90 came to 7.13 µM. Also, under setting [3], the IC90 turned out to be 5.92 µM.

With `O=C(c1cnn2c(C(F)(F)F)cc(-c3cccs3)nc12)N1CCN(C(c2ccccc2)c2ccccc2)CC1`, the IC50 was 26.6 µM (inactive). The same molecule registered an IC50 under setting [1] of 32.5 µM. Under setting [2], this molecule had an IC90 above 100 µM. Moreover, under setting [3], the IC90 is above 100 µM.

For `COc1cc(OC)c2ccc(=O)oc2c1C(CC(=O)N1CCN(c2ccccc2)CC1)c1ccc2c(c1)OCO2` (stereo not drawn), the IC50 was 91.1 µM (inactive). The same molecule showed a concentration for half-maximal inhibition (IC50) under setting [1] above 100 µM. In addition, the concentration for an effect of 90% (IC90) under setting [2] was above 100 µM. The molecule also had a concentration for an effect of 90% (IC90) under setting [3] above 100 µM.

Turning to `Cc1nn(C)c(C)c1NC(=O)CCCSc1nc(-c2ccco2)cc(C(F)(F)F)n1`, the IC50 was > 100 µM (inactive). The IC50 under setting [1] is above 100 µM. This molecule displayed a 90% effect concentration (IC90) under setting [2] above 100 µM. Besides, under setting [3], the IC90 was above 100 µM.

On to `O=c1[nH]c(CSc2nnc3ccccn23)nc2ccccc12`, for which the IC50 is > 100 µM (inactive). Moreover, the IC50 under setting [1] is above 100 µM. The molecule further registered a 90% effect concentration (IC90) under setting [2] above 100 µM. Besides, the IC90 under setting [3] is above 100 µM.

For the molecule `CCOC(=O)c1[nH]c2ccccc2c1NC(=O)Nc1ccc(OC)cc1`, the IC50 was > 100 µM (inactive). This molecule also had an IC50 under setting [1] above 100 µM. For the same molecule, the concentration for an effect of 90% (IC90) under setting [2] was above 100 µM. This molecule returned a concentration for an effect of 90% (IC90) under setting [3] above 100 µM.

On to `COc1cc(C(=O)NNC(=O)c2cc(-c3ccccc3)n[nH]2)cc(OC)c1C`, for which the half-inhibitory concentration (IC50) is 19.7 µM. Further, under setting [1], the IC50 is above 100 µM. The molecule further had an IC90 under setting [2] above 100 µM. Further, under setting [3], the 90% effect concentration (IC90) is above 50 µM.

In the case of `CCOC(OCC)c1cn(Cc2ccc3c(c2)C(=O)c2ccccc2C3=O)nn1`, the IC50 was > 100 µM (inactive). In addition, the IC50 under setting [1] is above 100 µM. In addition, the IC90 under setting [2] was above 100 µM. Under setting [3], this molecule returned a concentration for an effect of 90% (IC90) above 100 µM.

`CC1CCc2nc(NC(=O)C3COc4ccccc4O3)sc2C1` (stereo not drawn): the IC50 was 26.2 µM (inactive). Moreover, the IC50 under setting [1] was determined as 51.9 µM. In addition, the IC90 under setting [2] was above 100 µM. Moreover, the concentration for an effect of 90% (IC90) under setting [3] is above 100 µM.

On to `Cc1nnc(SCC2=C(C(=O)O)N3C(=O)C(NC(=O)COc4ccc(F)cc4)C3SC2)s1` (stereo not drawn), for which the IC50 is 1.74 µM. The molecule also gave a half-inhibitory concentration (IC50) under setting [1] of 99 µM. Also, under setting [2], the IC90 is above 100 µM. This molecule also displayed an IC90 under setting [3] of 9.33 µM.

Turning to `CCOC(=O)C1=C(C)N=c2s/c(=C\c3ccncc3)c(=O)n2C1c1ccc2c(c1)OCO2` (stereo not drawn), the IC50 was 69.7 µM (inactive). In addition, the IC50 under setting [1] was 95.7 µM. Moreover, the IC90 under setting [2] was above 100 µM. This molecule showed an IC90 under setting [3] above 100 µM.

Take `O=C(Nc1ccccc1Br)c1cccc2ccccc12`: the IC50 was > 100 µM (inactive). Further, the 50% inhibitory concentration (IC50) under setting [1] was above 100 µM. Moreover, the 90% effect concentration (IC90) under setting [2] is above 100 µM. For the same molecule, the IC90 under setting [3] was above 100 µM.

Turning to `Nc1nc(Sc2ncccc2[N+](=O)[O-])n[nH]1`, the IC50 was 21.6 µM (inactive). The molecule also registered a half-inhibitory concentration (IC50) under setting [1] of 37.4 µM. The molecule also came in with an IC90 under setting [2] above 50 µM. Moreover, the IC90 under setting [3] stood at 77.1 µM.

`COc1cccc(NC(=O)C2CC2)c1`: the IC50 is 6.09 µM. This molecule also had an IC50 under setting [1] above 100 µM. The IC90 under setting [2] was above 100 µM. For the same molecule, the 90% effect concentration (IC90) under setting [3] is above 100 µM.
